# pIC50: −log10 of the molar value.
# What was measured:
# [1] = target: Amyloid-beta precursor protein (Homo sapiens) (UniProt P05067); assay: Inhibition of HFIP-pretreated amyloid beta (1 to 42) (unknown origin) aggregation at 10 uM after 36 to 48 hrs by thioflavin-T fluorescence assay relative to control; conditions: time 36-48 hrs
# [2] = target: Acetylcholinesterase (Electrophorus electricus) (UniProt O42275); assay: Inhibition of electric eel AChE at 10 uM using acetylthiocholine as substrate preincubated for 5 mins followed by substrate addition and measured after 5 mins by Ellman's method relative to control; conditions: time 10.0 min
# Cholinesterase [3] = target: T1, Cholinesterase (Homo sapiens, UniProt P06276); assay: Inhibition of human BuchE at 1 uM using butyrylthiocholine as substrate preincubated for 5 mins followed by substrate addition and measured after 5 mins by Ellman's method relative to control; conditions: time 10.0 min
# Beta-secretase 1 [4] = target: T2, Beta-secretase 1 (Homo sapiens, UniProt P56817)
# Beta-secretase 1 [5] = target: T2, Beta-secretase 1; conditions: dose 50.0 µM, time 60.0 min
# [6] = target: Sodium- and chloride-dependent GABA transporter 1 (Mus musculus) (UniProt P31648); assay: Inhibition of mouse GAT1 expressed in HEK293 cell line assessed as reduction in [3H]GABA uptake at 100 uM incubated for 10 mins relative to control; format: cell-based
# [7] = target: T3, GABA transporter 3 (Mus musculus) (UniProt P31649); assay: Inhibition of mouse GAT2 expressed in HEK293 cell line assessed as reduction in [3H]GABA uptake at 100 uM incubated for 10 mins relative to control; format: cell-based
# T3 sequence (whole entry): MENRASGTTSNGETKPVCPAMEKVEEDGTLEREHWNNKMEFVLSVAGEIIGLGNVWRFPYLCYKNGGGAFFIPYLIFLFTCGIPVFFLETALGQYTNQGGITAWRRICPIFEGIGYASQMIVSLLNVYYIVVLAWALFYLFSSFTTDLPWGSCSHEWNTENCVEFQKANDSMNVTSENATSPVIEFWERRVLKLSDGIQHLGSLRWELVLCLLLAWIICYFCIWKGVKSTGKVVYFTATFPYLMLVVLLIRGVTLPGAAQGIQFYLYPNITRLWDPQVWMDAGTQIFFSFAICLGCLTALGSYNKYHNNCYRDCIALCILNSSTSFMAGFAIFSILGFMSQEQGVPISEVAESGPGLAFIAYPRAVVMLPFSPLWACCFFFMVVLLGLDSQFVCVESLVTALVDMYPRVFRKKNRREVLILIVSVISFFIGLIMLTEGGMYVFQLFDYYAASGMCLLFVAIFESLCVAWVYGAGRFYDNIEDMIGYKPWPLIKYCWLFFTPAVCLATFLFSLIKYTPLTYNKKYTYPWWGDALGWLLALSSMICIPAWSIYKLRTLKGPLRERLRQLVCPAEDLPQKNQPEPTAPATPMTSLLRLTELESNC
# [8] = target: T4, GABA transporter 4 (Mus musculus) (UniProt P31650); assay: Inhibition of mouse GAT3 expressed in HEK293 cell line assessed as reduction in [3H]GABA uptake at 100 uM incubated for 10 mins relative to control; format: cell-based
# T4 sequence (whole entry): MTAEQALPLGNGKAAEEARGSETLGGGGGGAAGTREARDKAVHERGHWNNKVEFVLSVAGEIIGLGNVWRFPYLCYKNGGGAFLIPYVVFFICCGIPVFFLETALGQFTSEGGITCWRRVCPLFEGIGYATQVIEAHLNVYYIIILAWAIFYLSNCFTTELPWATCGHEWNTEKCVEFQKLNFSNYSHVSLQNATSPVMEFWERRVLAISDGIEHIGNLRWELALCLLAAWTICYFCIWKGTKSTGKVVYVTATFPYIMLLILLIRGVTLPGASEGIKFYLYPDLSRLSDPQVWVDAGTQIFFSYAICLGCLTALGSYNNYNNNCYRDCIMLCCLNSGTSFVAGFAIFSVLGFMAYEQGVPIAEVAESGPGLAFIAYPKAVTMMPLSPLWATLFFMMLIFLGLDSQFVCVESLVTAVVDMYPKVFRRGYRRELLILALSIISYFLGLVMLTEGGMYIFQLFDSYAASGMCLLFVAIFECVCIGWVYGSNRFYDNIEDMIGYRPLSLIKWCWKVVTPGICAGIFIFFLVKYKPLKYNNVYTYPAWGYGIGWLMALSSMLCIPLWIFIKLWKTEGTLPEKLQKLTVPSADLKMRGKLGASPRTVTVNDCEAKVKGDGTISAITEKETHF
# GABA transporter 4 = target: T5, GABA transporter 4 (Mus musculus, UniProt P31650); assay: Inhibition of mouse GAT4 expressed in HEK293 cell line assessed as reduction in [3H]GABA uptake incubated for 10 mins; format: cell-based
# T5 sequence (P31650 whole entry): T4 sequence (whole entry)
# [9] = target: Sodium- and chloride-dependent GABA transporter 1 (Mus musculus) (UniProt P31648); assay: Inhibition of NO711 binding to mouse GAT1 expressed in HEK cell membranes at 100 uM incubated for 40 mins in presence of NO711 by LC-ESI-MS/MS analysis relative to control; conditions: Membrane
# Cholinesterase [10] = target: Cholinesterase (Equus caballus, UniProt P81908)
# Description: Inhibition of equine serum BuChE using butyrylthiocholine as substrate preincubated for 5 mins followed by substrate addition and measured after 5 mins by Ellman's method
# Cholinesterase [11] = target: T1, Cholinesterase
# Description: Inhibition of human BuchE using butyrylthiocholine as substrate preincubated for 5 mins followed by substrate addition and measured after 5 mins by Ellman's method
# [12] = target: Sodium- and chloride-dependent GABA transporter 1 (Mus musculus, UniProt P31648); assay: Inhibition of mouse GAT1 expressed in HEK293 cell line assessed as reduction in [3H]GABA uptake incubated for 10 mins; format: cell-based
# T1 sequence (P06276 whole entry): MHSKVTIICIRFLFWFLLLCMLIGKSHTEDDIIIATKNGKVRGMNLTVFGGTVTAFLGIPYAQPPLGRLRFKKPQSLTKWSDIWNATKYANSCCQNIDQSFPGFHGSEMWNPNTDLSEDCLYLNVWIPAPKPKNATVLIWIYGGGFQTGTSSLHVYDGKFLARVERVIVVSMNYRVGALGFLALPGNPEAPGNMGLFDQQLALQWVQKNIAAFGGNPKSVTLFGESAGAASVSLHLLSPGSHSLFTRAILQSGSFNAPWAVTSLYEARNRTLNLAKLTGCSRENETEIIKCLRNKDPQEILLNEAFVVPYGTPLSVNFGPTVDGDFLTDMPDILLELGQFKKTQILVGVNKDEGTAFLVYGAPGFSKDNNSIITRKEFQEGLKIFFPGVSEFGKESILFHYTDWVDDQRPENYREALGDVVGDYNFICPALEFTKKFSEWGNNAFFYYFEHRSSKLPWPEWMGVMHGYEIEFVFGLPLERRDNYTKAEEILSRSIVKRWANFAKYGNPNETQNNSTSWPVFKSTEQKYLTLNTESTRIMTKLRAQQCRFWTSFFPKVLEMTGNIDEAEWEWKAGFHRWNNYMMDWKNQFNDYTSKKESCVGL
# T2 sequence (P56817 whole entry): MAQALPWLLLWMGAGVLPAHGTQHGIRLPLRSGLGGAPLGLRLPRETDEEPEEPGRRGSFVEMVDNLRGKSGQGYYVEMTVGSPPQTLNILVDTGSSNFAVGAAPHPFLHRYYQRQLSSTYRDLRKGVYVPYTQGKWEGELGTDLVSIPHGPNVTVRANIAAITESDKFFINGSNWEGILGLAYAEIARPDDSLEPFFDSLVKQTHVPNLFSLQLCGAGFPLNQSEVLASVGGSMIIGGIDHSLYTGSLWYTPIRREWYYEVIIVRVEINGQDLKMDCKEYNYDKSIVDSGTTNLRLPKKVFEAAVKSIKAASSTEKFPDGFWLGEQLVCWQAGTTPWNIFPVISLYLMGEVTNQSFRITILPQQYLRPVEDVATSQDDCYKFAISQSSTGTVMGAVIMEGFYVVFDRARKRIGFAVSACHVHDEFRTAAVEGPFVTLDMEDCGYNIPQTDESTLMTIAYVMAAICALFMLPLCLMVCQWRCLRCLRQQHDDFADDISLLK
# Acetylcholinesterase (Electrophorus electricus), sequence (O42275 24-633 limits assumed): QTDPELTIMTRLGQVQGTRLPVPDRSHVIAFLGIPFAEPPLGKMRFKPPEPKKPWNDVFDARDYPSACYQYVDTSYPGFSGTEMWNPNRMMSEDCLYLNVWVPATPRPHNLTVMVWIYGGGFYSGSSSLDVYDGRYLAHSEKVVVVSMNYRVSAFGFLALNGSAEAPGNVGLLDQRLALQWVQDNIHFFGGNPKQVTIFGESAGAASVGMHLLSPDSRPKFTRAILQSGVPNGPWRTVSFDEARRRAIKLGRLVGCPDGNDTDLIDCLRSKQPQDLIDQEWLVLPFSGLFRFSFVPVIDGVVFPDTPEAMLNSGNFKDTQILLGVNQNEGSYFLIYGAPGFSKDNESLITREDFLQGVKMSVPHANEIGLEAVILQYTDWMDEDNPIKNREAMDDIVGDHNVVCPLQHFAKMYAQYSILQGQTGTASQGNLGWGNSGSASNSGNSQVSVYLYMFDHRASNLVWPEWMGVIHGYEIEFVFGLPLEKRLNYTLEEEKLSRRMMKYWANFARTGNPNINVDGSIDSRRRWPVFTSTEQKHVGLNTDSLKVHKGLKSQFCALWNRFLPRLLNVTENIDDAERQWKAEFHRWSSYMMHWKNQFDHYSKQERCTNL
# Cholinesterase (Equus caballus, UniProt P81908), sequence (P81908 whole entry): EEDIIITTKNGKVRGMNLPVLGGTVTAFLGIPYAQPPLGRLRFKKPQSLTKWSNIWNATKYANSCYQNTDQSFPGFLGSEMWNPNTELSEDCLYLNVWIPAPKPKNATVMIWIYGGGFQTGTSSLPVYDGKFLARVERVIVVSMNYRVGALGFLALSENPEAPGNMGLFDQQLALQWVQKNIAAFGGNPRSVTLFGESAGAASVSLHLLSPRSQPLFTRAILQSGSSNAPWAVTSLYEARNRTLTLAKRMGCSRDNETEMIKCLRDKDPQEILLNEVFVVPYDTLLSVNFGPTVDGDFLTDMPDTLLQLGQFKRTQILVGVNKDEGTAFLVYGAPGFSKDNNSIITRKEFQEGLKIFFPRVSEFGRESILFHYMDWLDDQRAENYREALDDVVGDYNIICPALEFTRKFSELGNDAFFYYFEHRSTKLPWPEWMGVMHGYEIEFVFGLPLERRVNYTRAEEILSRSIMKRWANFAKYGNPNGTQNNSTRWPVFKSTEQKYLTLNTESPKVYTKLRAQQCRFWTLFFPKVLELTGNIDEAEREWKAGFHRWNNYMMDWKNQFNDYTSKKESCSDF
# Amyloid-beta precursor protein (Homo sapiens), sequence (P05067 whole entry): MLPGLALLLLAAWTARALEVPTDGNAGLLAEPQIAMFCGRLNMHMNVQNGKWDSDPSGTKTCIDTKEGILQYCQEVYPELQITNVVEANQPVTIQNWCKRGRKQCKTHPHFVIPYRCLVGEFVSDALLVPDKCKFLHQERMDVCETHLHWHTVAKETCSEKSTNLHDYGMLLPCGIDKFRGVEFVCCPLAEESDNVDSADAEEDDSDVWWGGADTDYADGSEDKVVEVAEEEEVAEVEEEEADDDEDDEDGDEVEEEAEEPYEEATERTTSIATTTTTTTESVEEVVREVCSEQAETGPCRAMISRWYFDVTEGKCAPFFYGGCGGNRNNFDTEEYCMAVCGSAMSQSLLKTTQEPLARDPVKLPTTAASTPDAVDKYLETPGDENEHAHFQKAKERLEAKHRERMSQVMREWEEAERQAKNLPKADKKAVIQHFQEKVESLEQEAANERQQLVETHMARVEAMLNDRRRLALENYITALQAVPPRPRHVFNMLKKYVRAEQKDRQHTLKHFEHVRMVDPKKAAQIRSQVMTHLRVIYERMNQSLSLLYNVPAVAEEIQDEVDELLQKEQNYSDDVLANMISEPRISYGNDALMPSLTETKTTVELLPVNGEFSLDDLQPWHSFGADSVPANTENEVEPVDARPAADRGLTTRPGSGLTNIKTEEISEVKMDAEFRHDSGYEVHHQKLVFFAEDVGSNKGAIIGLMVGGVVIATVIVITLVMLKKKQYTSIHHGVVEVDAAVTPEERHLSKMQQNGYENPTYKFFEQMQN
SMILES,inhibition [1] [%],inhibition [2] [%],inhibition (Cholinesterase [3]) [%],pIC50 (Beta-secretase 1 [4]),inhibition (Beta-secretase 1 [5]) [%],inhibition [6] [%],inhibition [7] [%],inhibition [8] [%],pIC50 (GABA transporter 4),inhibition [9] [%],pIC50 (Cholinesterase [10]),pIC50 (Cholinesterase [11]),pIC50 [12]
O=C(CC(c1ccccc1)c1ccccc1)N[C@@H](Cc1ccccc1)[C@H](O)CNCc1ccccc1,20.5,< 10,62.3,4.45,–,–,–,–,–,–,–,–,–
COc1cccc(CNC[C@@H](O)[C@H](Cc2ccccc2)NC(=O)C(c2ccccc2)c2ccccc2)c1,20.5,< 10,56.5,–,37,61,61,67,4.48,85,5.81,–,–
COc1cccc(CNC[C@@H](O)[C@H](Cc2ccccc2)NCCC(c2ccccc2)c2ccccc2)c1,34.7,< 10,55.4,–,50.6,–,–,–,–,–,5.69,–,–
C[C@H](NC[C@@H](O)[C@H](Cc1ccccc1)NCC(c1ccccc1)c1ccccc1)c1ccccc1,34.7,< 10,–,–,53.9,–,–,–,–,–,6.02,6.04,–
CC(C)c1cccc(CNC[C@@H](O)[C@H](Cc2ccccc2)NCCC(c2ccccc2)c2ccccc2)c1,34.7,25.9,67.4,5.18,–,–,–,–,–,–,5.74,–,–
O[C@H](CNCc1ccccc1)[C@H](Cc1ccccc1)NCCC(c1ccccc1)c1ccccc1,34.7,< 10,71.7,–,55.3,–,–,–,–,–,5.81,–,–
O=C(N[C@@H](Cc1ccccc1)[C@H](O)CNCC1CC1)C(c1ccccc1)c1ccccc1,20.5,< 10,12.3,–,44.4,51,85,54,4.13,74,5.49,–,–
C[C@H](NC[C@@H](O)[C@H](Cc1ccccc1)NCCC(c1ccccc1)c1ccccc1)c1ccccc1,34.7,< 10,72.5,–,62,–,–,–,–,–,6.01,–,–
COc1ccccc1CNC[C@H](O)[C@H](Cc1ccccc1)NC(=O)CC(c1ccccc1)c1ccccc1,20.5,< 10,–,4.63,–,–,–,–,–,–,6.48,6.46,–
COc1ccccc1CNC[C@H](O)[C@H](Cc1ccccc1)NCCC(c1ccccc1)c1ccccc1,34.7,< 10,–,–,65.5,–,–,–,–,–,6.00,6.10,–
O=C(N[C@@H](Cc1ccccc1)[C@@H](O)CNCc1cccc(C(F)(F)F)c1)C(c1ccccc1)c1ccccc1,–,< 10,–,5.07,–,–,–,–,–,–,6.41,6.17,–
CC(C)(NC[C@@H](O)[C@H](Cc1ccccc1)NC(=O)CC(c1ccccc1)c1ccccc1)c1ccccc1,20.5,< 10,13.3,5.05,–,–,–,–,–,–,5.49,–,–
O=C(CC(c1ccccc1)c1ccccc1)N[C@@H](Cc1ccccc1)[C@@H](O)CNCc1ccccc1,20.5,< 10,67.7,4.76,–,61,74,76,–,83,–,–,–
O=C(N[C@@H](Cc1ccccc1)[C@H](O)CNCc1ccccc1)C(c1ccccc1)c1ccccc1,–,< 10,34.1,–,56.2,–,–,–,–,–,5.82,–,–
CC(C)(C)c1ccc(CNC[C@H](O)[C@H](Cc2ccccc2)NC(=O)C(c2ccccc2)c2ccccc2)cc1,20.5,< 10,–,5.68,–,–,–,–,–,–,5.46,6.70,–
CC(C)c1cccc(CNC[C@H](O)[C@H](Cc2ccccc2)NC(=O)C(c2ccccc2)c2ccccc2)c1,–,< 10,74.9,5.47,–,–,–,–,–,–,6.70,–,–
CC(C)(C)NC[C@H](O)[C@H](Cc1ccccc1)NCCC(c1ccccc1)c1ccccc1,34.7,< 10,68.5,–,51.3,–,–,–,–,–,6.72,–,–
CC(C)(C)c1cccc(CNCC(O)CNCCC(c2ccccc2)c2ccccc2)c1 (configuration not stated),–,21.8,–,4.38,–,–,–,–,–,–,5.53,5.24,–
O=C(N[C@@H](Cc1ccccc1)[C@@H](O)CNCc1ccccc1)C(c1ccccc1)c1ccccc1,–,< 10,40.5,–,66.1,–,–,52,4.57,74,6.64,–,4.46
CC(C)(C)NC[C@H](O)[C@H](Cc1ccccc1)NC(=O)C(c1ccccc1)c1ccccc1,20.5,< 10,35.5,–,< 10,–,–,–,–,–,6.08,–,–
COc1ccccc1CNC[C@H](O)[C@H](Cc1ccccc1)NCC(c1ccccc1)c1ccccc1,81.4,< 10,–,–,55.2,–,–,–,–,–,6.49,6.24,–
O[C@H](CNCc1ccccc1)[C@H](Cc1ccccc1)NCC(c1ccccc1)c1ccccc1,–,< 10,–,–,42,–,–,–,–,–,6.02,6.49,–
COc1ccccc1CNC[C@H](O)[C@H](Cc1ccccc1)NC(=O)C(c1ccccc1)c1ccccc1,20.5,< 10,–,–,66.2,–,–,69,4.70,80,6.96,6.27,4.06
CC(C)(NC[C@@H](O)[C@H](Cc1ccccc1)NCCC(c1ccccc1)c1ccccc1)c1ccccc1,34.7,< 10,53.2,–,71.8,–,–,–,–,–,5.80,–,–
CC(C)(C)CNC[C@@H](O)[C@H](Cc1ccccc1)NC(=O)CC(c1ccccc1)c1ccccc1,–,< 10,46.2,4.47,–,–,–,–,–,–,5.56,–,–
COc1cccc(CNC[C@@H](O)[C@H](Cc2ccccc2)NC(=O)CC(c2ccccc2)c2ccccc2)c1,20.5,< 10,–,–,49,67,–,92,5.23,65,5.89,6.36,–
CC(C)(C)NC[C@H](O)[C@H](Cc1ccccc1)NC(=O)CC(c1ccccc1)c1ccccc1,20.5,< 10,< 10,–,< 10,–,–,–,–,–,4.93,–,–
CC(C)(C)c1cccc(CNC[C@@H](O)[C@H](Cc2ccccc2)NC(=O)CC(c2ccccc2)c2ccccc2)c1,20.5,< 10,77.3,5.22,–,–,–,–,–,–,6.35,–,–

# From ChEMBL document CHEMBL4819069, “Discovery of multifunctional anti-Alzheimer's agents with a unique mechanism of action including inhibition of the enzyme butyrylcholinesterase and γ-aminobutyric acid transporters” (Eur J Med Chem, 2021)
